Data reported in paper PMC12299903 (Pharmaceuticals, 2025).
≈ marks a conversion by molar mass, not a printed value. Entries after “also recorded” stand apart in the source; their conditions may differ. Where a SMILES comes first, the peptide text is derived from it. Where no end group is shown, it is not given here.

Experiments:
trypsin [1] = assay: Proteolytic degradation by trypsin (HPLC); type: in vitro ADME; conditions: trypsin 1:50 (w/w), 100 µM peptide, 20 mM Tris-HCl pH 8.0, 37 °C, time points 1 min to 4 h; for time to complete degradation by trypsin: HPLC-UV; for time after which progressive degradation (cleavage fragment peaks) is observed with trypsin: HPLC-UV of filtered supernatant
Experimental: Lunatin–AAAE and EAAA–lunatin and their nanoparticle-functionalized counterparts (NP-Lun-EN and NP-Lun-EC) were suspended in 20 mM Tris-HCl buffer (pH 8.0) at a final peptide concentration of 100 µM and exposed to enzymatic digestion with trypsin at 37 °C, using an enzyme-to-substrate ratio of 1:50 (w/w) in a final volume of 1000 µL. Incubation was performed using an AccuBlock™ Digital Dry Bath (Ciencor),. Aliquots of 200 µL were withdrawn at different time points (1 min, 5 min, 10 min, 30 min, 1 h, 2 h, 3 h, and 4 h), and enzymatic activity was quenched by adding 40 µL of 1 M HCl. Samples were centrifugated and supernatant filtered in whatman® alumina anodisc filter discs 0.02 μm pore size, previously injected in a high-performance liquid chromatography system (Varian® ProStar 315 system equipped with a UV detector), using an Agilent AdvanceBio Peptide Mapping column (4.6 × 150 mm), and 50 µL injection loop.

trypsin [2] = assay: trypsin in 20 mM Tris-HCl buffer (pH 8.0); conditions: 37 °C, up to 4 h
[3] = tested on: Acinetobacter (ATCC17978); assay: Antibacterial assay, MIC (broth microdilution, resazurin); type: cell-based; conditions: Mueller-Hinton broth, CLSI M07-A9, 1:2 serial dilution from 128.5 μM, 37 °C 20 h, resazurin read-out, triplicate; conjugates dosed as peptide concentration
Experimental: (§1) The peptide Lun-1 and the peptide-conjugated nanoparticles (Lun-EN and Lun-EC) were investigated against […] bacterial strains—Pseudomonas aeruginosa, Staphylococcus aureus, Acinetobacter, Escherichia coli, and Streptococcus agalactiae, all from American Type Culture Collection (Manassas, VA, USA). Details can be found in the SM. […]
(§2) phase at 35 °C and subsequently transferred to Mueller-Hinton broth according to the guidelines established by the M07 -A9 CLSI. Methods for the dilution antimicrobial susceptibility tests for b acteria that grow aerobically were from the Approved Standard—Ninth Edition. CLSI document M07 -A9. Wayne, PA: Clinical and Laboratory Standards Institute; 2012. Bacterial suspensions were adjusted to the turbidity equivalent to 0.5 McFarland standard ([…]), by spectrophotometric measurement at 625 nm (Bel Photonics S2000 UV, São Paulo, Brazil).
(§3) The suspension was then diluted 1:20, and 50 μL aliquots were distributed into 96-well flat-bottom microplates (Nümbrecht, Germany).
(§4) Chloramphenicol (30 μg·mL⁻¹; 92.8 μM) was used as standard drug and served as positive control for growth bacterial inhibition. Wells containing 50 μL of bacterial inoculum and 50 μL of sterile culture medium were used as negative controls. Free peptides were tested at a maximum concentration of 128.5 μM and diluted via serial dilution (1:2) up to seven times in Mueller–Hinton broth. For the nanoparticle– peptide conjugations concentration s were adjusted according to the degree of functionalization to ensure accurate dosing of the active peptide component.
(§5) Plates were incubated at 37 °C for 20 hours. After incubation, 30 μL of a 0.01% (w/v) resazurin solution (10-oxido -7 -oxophenoxazin-10 -ium -3 -olate; Sigma -Aldrich, St. Louis, MO, USA) was added to each well. Plates were protected from light and incubated for an additional 4 hours to allow colorimetric development. The tests whose bacteria did not develop a pink color after incubation (maintaining the blue coloration) were […]

[4] = tested on: Escherichia coli (ATCC25922); assay: as above; type: cell-based; conditions: Mueller-Hinton broth, CLSI M07-A9, 1:2 serial dilution from 128.5 μM, 37 °C 20 h, resazurin read-out, triplicate; conjugates dosed as peptide concentration
Experimental: as §1, §2, §3, §4, §5

[5] = tested on: Pseudomonas aeruginosa (ATCC27853); assay: as above; type: cell-based; conditions: Mueller-Hinton broth, CLSI M07-A9, 1:2 serial dilution from 128.5 μM, 37 °C 20 h, resazurin read-out, triplicate; conjugates dosed as peptide concentration
Experimental: as §1, §2, §3, §4, §5

[6] = tested on: Staphylococcus aureus (ATCC29213); assay: as above; type: cell-based; conditions: Mueller-Hinton broth, CLSI M07-A9, 1:2 serial dilution from 128.5 μM, 37 °C 20 h, resazurin read-out, triplicate; conjugates dosed as peptide concentration
Experimental: as §1, §2, §3, §4, §5

[7] = tested on: Streptococcus agalactiae (ATCC 29313); assay: as above; type: cell-based; conditions: Mueller-Hinton broth, CLSI M07-A9, 1:2 serial dilution from 128.5 μM, 37 °C 20 h, resazurin read-out, triplicate; conjugates dosed as peptide concentration
Experimental: as §1, §2, §3, §4, §5

Staphylococcus aureus = assay: Bacterial cell death kinetics (time-kill); type: cell-based; conditions: S. aureus in MH broth, 10^5 CFU·mL^−1, tested at 0.5×, 2×, 4× MIC over 12 h, triplicate
Experimental: Bacterial time-kill assays were performed in triplicate, following the methodology of ref. [43] with minor modifications. Staphylococcus aureus was cultured in Mueller–Hinton (MH) broth at an initial concentration of […] and exposed to free peptides and peptide-functionalized nanobiostructures at concentrations corresponding to 0.5×, 1×, 2×, and 4× the MIC (minimum inhibitory concentration). Samples were collected at defined time intervals: 0, 0.5, 1, 2, 4, 6, 8, 10, and 12 h. Cell viability was assessed using the microdrop method described by Romeiro (2001). Serial dilutions of the bacterial suspensions (10^−1, 10^−2, and 10^−3) were prepared, and 5 µL aliquots from each dilution were plated onto brain–heart infusion (BHI) agar. Plates were incubated for up to 12 h, after which colony counts were performed. The number of colony-forming units (UFC) was calculated by multiplying the colony count by the reciprocal of the dilution factor, and results were expressed as UFC·mL^−1. This approach provided quantitative data on the time–dependent bactericidal activity of both the free peptides and nanoparticle-conjugated formulations.

[8] = Differential scanning calorimetry of model membranes; conditions: for Tm of LUVs: 3 mM DMPC:DMPG (3:1) LUVs, 10 mM Tris-HCl pH 7.5, pure LUVs 23.1, triplicate, ± 0.2 °C
Experimental: The phase transition profile of 1,2-dimyristoyl-sn-glycero-3-phosphocholine and 1,2-dimyristoyl-sn-glycero-3-phosphocholine/1,2-dimyristoyl-sn-glycero-3-phosphoglycerol (DMPC:DMPG. 3:1, mol:mol) at 3 mM was investigated in the absence and presence of Lun-1, NP, NP-Lun-EN, and NP-Lun-EC at different concentrations (Table S1, using a VP-DSC® microcalorimeter (Malvern® Instruments, Malvern, UK). All mixtures of LUVs and peptide–LUVs were prepared immediately prior to the experiments. The samples were pre-degassed and tested against a 10 mM Tris-HCl buffer (pH 7.5) containing 50 mM NaCl in the reference cell. Buffer-only experiments were also performed in all cells for subsequent background subtraction. Each sample underwent three successive heating scans in the temperature range of 10–35 °C at a heating rate of 1.0 °C.min^−1. Data analyses were performed using Microcal Origin® DSC software version 5.0 (GE HealthCare-Microcal®, Amherst, MA, USA), which was employed to subtract the blank and determine the transition temperature (Tm) and transition enthalpy (DtransH) from the gel phase to the liquid crystalline phase.

[9] = Circular dichroism, secondary structure content; type: physicochemical; conditions: 10 mM Tris-HCl, 100 mM NaCl, pH 8.5, 25 µM peptide, 25 °C; for a-helical percentage (CD deconvolution) / β-sheet percentage (CD deconvolution): in buffer, CDpro; for α-helix content (CD deconvolution): in presence of 200 µM POPC:POPG (3:1) LUVs
Experimental: Circular dichroism spectra were recorded using a JASCO J-815 spectrometer (Easton, MD, USA) equipped with a Peltier Jasco model PTC-423 L temperature control system. Spectra were obtained using a quartz cuvette with a 1 cm optical path at a temperature of 25 °C, covering a wavelength range from 190 to 260 nm with eight consecutive scans per sample. The scan speed was set at 100 nm/min and the response time was 4 s. The bandwidth was 1 nm, and ellipticity readings were taken every 0.2 nm. The Lun-1 (25 µM), NP (0.155 mg·mL^−1), NP-Lun-EN (0.17 mg·mL^−1–25 µM of peptide concentration), and NP-Lun-EC (0.18 mg·mL^−1–25 µM of peptide concentration) samples were (corresponding to 25 µM of peptide in NP-Lun-EN and NP-Lun-EC) suspended in 10 mM Tris-HCl buffer solution at pH 8.5 containing 100 mM NaCl or in 200 µM POPC:POPG (3:1, mol:mol) LUVs suspended in the same buffer solution. Data processing and deconvolution calculations to obtain the contents of secondary structures were carried out using the CDpro® program.

Zeta potential = type: physicochemical; conditions: 0.2 mg·mL^−1 in 10 mM Tris-HCl, pH 8.0, 100 mM NaCl; 25 °C; mean of triplicate ± SD
Experimental: Zeta potential and Hydrodynamic Diameter measurements were performed at room temperature (or 25 °C) on a Zetasizer Nano instrument (Malvern® ZS model BI-900, Worcestershire, UK). A 700 µL Malvern® cuvette (model DTS1061) was used for the analysis. The measurements were conducted, utilizing monochromatic light scattering (10 mW Ne laser, λ = 632.4 nm), with the light intensity measured at a 90° angle. Zeta potential (z) were carried out at 0.2 mg·mL^−1 of NP, NP-OH, NP-NH2, NP-Lun-EN, and NP-Lun-EC dispersed in a 10 mM Tris-HCl buffer, pH 8.0, containing 100 mM NaCl.

Compound: CC[C@H](C)[C@H](NC(=O)[C@@H](N)Cc1ccccc1)C(=O)NCC(=O)NCC(=O)N[C@@H](CC(C)C)C(=O)N[C@@H](CC(C)C)C(=O)N[C@@H](CCCCN)C(=O)N[C@H](C(=O)N[C@@H](CC(C)C)C(=O)N[C@H](C(=O)N[C@@H](CO)C(=O)N[C@@H](Cc1ccccc1)C(=O)N[C@@H](Cc1ccccc1)C(=O)N[C@@H](C)C(=O)N[C@@H](C)C(=O)N[C@@H](C)C(=O)N[C@@H](CCC(=O)O)C(N)=O)[C@@H](C)O)[C@@H](C)O [Lun-EC] (H-FIGGLLKTLTSFFAAAE-NH2)
- time to complete degradation by trypsin (trypsin [1]): 10 min

Compound: EAAAFIGGLLKTLTSFF-NH2 [Lun-EN]
- fragment found (trypsin [2]): TLTSFF, 1 min; also recorded: EAAAFIGGLLK, 1 min

Compound: EAAAFIGGLLKTLTSFF-NH2 [NP-Lun-EN]
- fragment found (trypsin [2]): TLTSFF, 2 h

Compound: FIGGLLKTLTSFFAAAE-NH2 [Lun-EC]
- fragment found (trypsin [2]): FIGGLLK, 1 min; also recorded: TLTSFFAAAE, 1 min

Compound: NP-NtermEAAA-Lun-1 [NP-Lun-EN]
- MIC [3]: did not exhibit activity
- MIC [4]: 128.5 µM
- MIC [5]: did not exhibit activity
- MIC [6]: 64.2 µM
- MIC [7]: 128.5 µM
- concentrations giving sustained reduction in viable cells without regrowth (Staphylococcus aureus): 2 × MIC and 4 × MIC
- Tm of LUVs ([8]; 10 µM peptide): 22.9 °C
- Tm of LUVs ([8]; 25 µM peptide): 22.9 °C
- Tm of LUVs ([8]; 50 µM peptide): 22.9 °C
- Tm of LUVs ([8]; 100 µM peptide): 21.9 °C
- a-helical percentage (CD deconvolution) [9]: 35%
- β-sheet percentage (CD deconvolution) [9]: 45%
- α-helix content (CD deconvolution) [9]: 40%
- time after which progressive degradation (cleavage fragment peaks) is observed with trypsin (trypsin [1]): 2 h
- ζ-potential (Zeta potential): +6.7 ± 0.9 mV

Compound: Lun-1-AAAECterm-NP [NP-Lun-EC]
- MIC [3]: 40.0 µM
- MIC [4]: 48.0 µM
- MIC [5]: 32.1 µM
- MIC [6]: 16.0 µM
- MIC [7]: 16.0 µM
- Tm of LUVs ([8]; 10 µM peptide): 22.7 °C
- Tm of LUVs ([8]; 25 µM peptide): 22.0/22.0 °C
- Tm of LUVs ([8]; 50 µM peptide): 21.1 °C
- Tm of LUVs ([8]; 100 µM peptide): 19.8 °C
- lowering of transition temperature (DTm) ([8]; DMPC:DMPG (3:1) LUVs, versus pure LUVs): 3.3 °C
- a-helical percentage (CD deconvolution) [9]: 30%
- β-sheet percentage (CD deconvolution) [9]: 40%
- α-helix content (CD deconvolution) [9]: 55%
- time after which progressive degradation (cleavage fragment peaks) is observed with trypsin (trypsin [1]): 2 h
- ζ-potential (Zeta potential): +5.8 ± 0.8 mV

Compound: CC[C@H](C)[C@H](NC(=O)[C@H](Cc1ccccc1)NC(=O)[C@H](C)NC(=O)[C@H](C)NC(=O)[C@H](C)NC(=O)[C@@H](N)CCC(=O)O)C(=O)NCC(=O)NCC(=O)N[C@@H](CC(C)C)C(=O)N[C@@H](CC(C)C)C(=O)N[C@@H](CCCCN)C(=O)N[C@H](C(=O)N[C@@H](CC(C)C)C(=O)N[C@H](C(=O)N[C@@H](CO)C(=O)N[C@@H](Cc1ccccc1)C(=O)N[C@@H](Cc1ccccc1)C(N)=O)[C@@H](C)O)[C@@H](C)O [Lun-EN] (H-EAAAFIGGLLKTLTSFF-NH2)
- time to complete degradation by trypsin (trypsin [1]): 10 min

Compound: FIGGLLKTLTSFFAAAE-NH2 [NP-Lun-EC]
- fragment found (trypsin [2]): FIGGLLK, 2 h

Compound: CC[C@H](C)[C@H](NC(=O)[C@@H](N)Cc1ccccc1)C(=O)NCC(=O)NCC(=O)N[C@@H](CC(C)C)C(=O)N[C@@H](CC(C)C)C(=O)N[C@@H](CCCCN)C(=O)N[C@H](C(=O)N[C@@H](CC(C)C)C(=O)N[C@H](C(=O)N[C@@H](CO)C(=O)N[C@@H](Cc1ccccc1)C(=O)N[C@@H](Cc1ccccc1)C(N)=O)[C@@H](C)O)[C@@H](C)O [Lun-1, lunatin-1] (H-FIGGLLKTLTSFF-NH2)
- MIC [3]: 32.1 µM (≈ 46.3 µg/mL)
- MIC [4]: 64.2 µM (≈ 92.6 µg/mL)
- MIC [5]: 32.1 µM (≈ 46.3 µg/mL)
- MIC [6]: 8.0 µM (≈ 11.5 µg/mL)
- MIC [7]: 16.0 µM (≈ 23.1 µg/mL)
